Results: patent US8927659B2, “Resorbable phenolic polymers” (TYRX, Inc., priority 2005, dated 2015)
In brackets after ≈: the same amount, converted by molar mass.

Test: Water solubility of monomer building blocks (Tables 1 and 2)
Type: physicochemical
Details: for solubility: water

Row | solubility (Table 2, unit inferred) [µg/mL] | SMILES | further results
1 | – | O=C(O)COCC(=O)O [Diglycolic acid] | Water Solubility (Table 2, unit not given): Water soluble
2 | 1630 (≈ 9.81 mM) | O=C(O)CCc1ccc(O)cc1 [DAT] | –
3 | 8000 (≈ 57.9 mM) | O=C(O)c1ccc(O)cc1 [4-hydroxy benzoic acid] | –
4 | – | NC(C(=O)O)c1ccc(O)cc1 (centres unmarked) [Hydroxyphenyl glycine] | solubility: 5000 µg/mL (≈ 29.9 mM)

Row | SMILES | solubility (Table 2, unit inferred) [µg/mL] | further results
5 | O=C(O)CCCC(=O)O [Glutaric acid] | 640000 (≈ 4840 mM) | –
